“Also recorded” adds a separate entry of the source.
How the values were obtained:
[1] = test system: skin of the back of the Rhino mouse (comedones); test: Comedolytic activity of Differin gel alone or preceded by anti-irritant on the Rhino mouse; assay type: in vivo, RHINO FVB/N RJ-hr (Rhino) mouse
Protocol: The goal of the present study is to compare the comedolytic activity of Differin® gel (reference gel comprising 0.1% adapalene) whether this treatment is preceded or not preceded by a treatment with an anti-irritant.
The treatment consists of a daily topical application of an aqueous/alcoholic vehicle (ethanol/water 50:50) comprising the anti-irritant potassium salt of 18β-glycyrrhetinic acid, followed 30 minutes later by an application of Differin® gel, on the skin of the back of the RHINO FVB/N RJ-hr^th (Rhino) mouse for 18 days.

ear of the BALB/c mouse [2] = test: Tolerance study: anti-irritant in preventive treatment before topical Differin gel, ear thickness (edema); assay type: in vivo; conditions: anti-irritant applied before Differin gel
Protocol: The goal of the present study is to compare the irritant power of a reference gel, comprising 0.1% adapalene, when this treatment is preceded or not preceded by treatment with an anti-irritant.
(§1) The treatment consists of a daily topical application (20 μl) of anti-irritant, formulated in an aqueous/alcoholic vehicle (50% ethanol and 50% water by volume), on the internal face of the right ear of BALB/c mice divided into 15 groups (female mice approximately 9 weeks old), followed by a topical application (20 μl) of Differin® gel (reference gel comprising 0.1% adapalene) at the rate of one application of each formulation per day for 6 days.
(§2) Evaluation is carried out by measurements of the thickness of the ear by means of the Oditest and by clinical observation of the animals from the 2nd to 19th day.

ear of the BALB/c mouse [3] = test: Study of tolerance of the formulation of Example 4 (non-split treatment), ear thickness; assay type: in vivo; conditions: adapalene and anti-irritant in the same formulation
Protocol: as §1, §2
A study of tolerance is carried out according to the protocol of Example 2 with the formulation of Example 4. However, the present case, in contrast to Example 2, relates to a treatment which is not split since the adapalene and the anti-irritant are present in the same formulation.

## CC1(C)[C@@H](O)CC[C@]2(C)[C@H]3C(=O)C=C4[C@@H]5C[C@@](C)(C(=O)[O-])CC[C@]5(C)CC[C@@]4(C)[C@]3(C)CC[C@@H]12.[K+] [Potassium salt of 18β-glycyrrhetinic acid]
[1]; back of Rhino mice after 18 days of daily topical treatment
  number of comedones per centimeter: statistically equivalent to that of groups 1 and 3
[1]; split treatment, anti-irritant 30 minutes before Differin gel, 18 days
  effect on the comedolytic activity of Differin gel (in words): does not reduce the comedolytic activity
Ear of the BALB/c mouse [2]
  effect on the irritation caused by Differin gel (in words): effective in reducing the irritation due to adapalene; also recorded: significantly reduces the irritation
Ear of the BALB/c mouse [3]
  anti-irritant effect (in words): appears to be an effective anti-irritant

## CC1(C)[C@@H](O)CC[C@]2(C)[C@H]3C(=O)C=C4[C@@H]5C[C@@](C)(C(=O)O)CC[C@]5(C)CC[C@@]4(C)[C@]3(C)CC[C@@H]12 [Enoxolone, 18β-Glycyrrhetinic acid]
Ear of the BALB/c mouse [2]
  effect on the irritation caused by Differin gel (in words): virtually no effect
Ear of the BALB/c mouse [2]; listed as enoxolone
  effect on the irritation caused by Differin gel (in words): does not have an effect on the irritation due to retinoids

From patent US20090012172A1, “Cosmetic/pharmaceutical compositions comprising retinoids and anti-irritants and treatment of keratinization disorders therewith” (GALDERMA RESEARCH & DEVELOPMENT, priority 2005, published 2009)
